In ChEMBL document CHEMBL1201861, “Genomics of Drug Sensitity in Cancer screening data, Wellcome Trust Sanger Institute”:
pIC50: −log10 of the molar value.

Assays:
VMRC-RCZ = assay: cells; type: functional, cell-based; conditions: Homo sapiens
Description: SANGER: Inhibition of human VMRC-RCZ cell growth in a cell viability assay.

NCCIT = assay: SANGER: Inhibition of human NCCIT cell growth in a cell viability assay.; type: functional, cell-based
T-24 = assay: cells; type: functional, cell-based; conditions: Homo sapiens;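 note: growth inhibition of T-24 cells, read out with a cell viability assay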
Description: SANGER: Inhibition of human T-24 cell growth in a cell viability assay.

ARH-77 = assay: cells; type: functional, cell-based; conditions: Homo sapiens;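 note: growth inhibition of ARH-77 cells, read out by a cell viability assay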
Description: SANGER: Inhibition of human ARH-77 cell growth in a cell viability assay.

GMS-10 = assay: cells; type: functional, cell-based; conditions: Homo sapiens;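 note: growth inhibition of GMS-10 cells, read out as cell viability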
Description: SANGER: Inhibition of human GMS-10 cell growth in a cell viability assay.

MEL-HO = assay: cells; type: functional, cell-based; conditions: Homo sapiens
Description: SANGER: Inhibition of human MEL-HO cell growth in a cell viability assay.

HT-1376 = assay: cells; type: functional, cell-based; conditions: Homo sapiens
Description: SANGER: Inhibition of human HT-1376 cell growth in a cell viability assay.

HN = assay: cells; type: functional, cell-based; conditions: Homo sapiens
Description: SANGER: Inhibition of human HN cell growth in a cell viability assay.

639-V = assay: cells; type: functional, cell-based; conditions: Homo sapiens;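 note: growth inhibition of 639-V cells, read out with a cell viability assay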
Description: SANGER: Inhibition of human 639-V cell growth in a cell viability assay.

SUP-T1 = assay: cells; type: functional, cell-based; conditions: Homo sapiens;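 note: growth inhibition of human SUP-T1 cells, read out as cell viability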
Description: SANGER: Inhibition of human SUP-T1 cell growth in a cell viability assay.

NCI-H441 = assay: cells; type: functional, cell-based; conditions: Homo sapiens;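 note: growth inhibition of NCI-H441 cells, read out with a cell viability assay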
Description: SANGER: Inhibition of human NCI-H441 cell growth in a cell viability assay.

OPM-2 = assay: cells; type: functional, cell-based; conditions: Homo sapiens;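 note: growth of OPM-2 cells measured with a viability assay, IC50 for suppression of proliferation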
Description: SANGER: Inhibition of human OPM-2 cell growth in a cell viability assay.

DU-145 = assay: cells; type: functional, cell-based; conditions: Homo sapiens
Description: SANGER: Inhibition of human DU-145 cell growth in a cell viability assay.

TYK-nu = assay: cells; type: functional, cell-based; conditions: Homo sapiens;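 note: growth inhibition of human TYK-nu cells, read out by a cell viability assay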
Description: SANGER: Inhibition of human TYK-nu cell growth in a cell viability assay.

CAMA-1 = assay: cells; type: functional, cell-based; conditions: Homo sapiens;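 note: growth inhibition of CAMA-1 cells, read out with a cell viability assay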
Description: SANGER: Inhibition of human CAMA-1 cell growth in a cell viability assay.

G-402 = assay: cells; type: functional, cell-based; conditions: Homo sapiens
Description: SANGER: Inhibition of human G-402 cell growth in a cell viability assay.

NALM-6 = assay: cells; type: functional, cell-based; conditions: Homo sapiens;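 note: growth inhibition of NALM-6 cells, read out with a cell viability assay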
Description: SANGER: Inhibition of human NALM-6 cell growth in a cell viability assay.

SNU-449 = assay: cells; type: functional, cell-based; conditions: Homo sapiens
Description: SANGER: Inhibition of human SNU-449 cell growth in a cell viability assay.

NCI-H1573 = assay: cells; type: functional, cell-based; conditions: Homo sapiens;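 note: growth inhibition of NCI-H1573 cells, read out with a cell viability assay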
Description: SANGER: Inhibition of human NCI-H1573 cell growth in a cell viability assay.

HuCCT-1 = assay: cells; type: functional, cell-based, HuCCT1; conditions: Homo sapiens;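 note: growth inhibition of HuCCT-1 cells, read out by a cell viability assay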
Description: SANGER: Inhibition of human HuCCT1 cell growth in a cell viability assay.

HuP-T3 = assay: cells; type: functional, cell-based; conditions: Homo sapiens;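 note: HuP-T3 cell growth inhibition, read out with a cell viability assay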
Description: SANGER: Inhibition of human HuP-T3 cell growth in a cell viability assay.

UO-31 = assay: cells; type: functional, cell-based; conditions: Homo sapiens
Description: SANGER: Inhibition of human U031 cell growth in a cell viability assay.

GDM-1 = assay: cells; type: functional, cell-based; conditions: Homo sapiens;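 note: cell viability readout used to measure growth inhibition of human GDM-1 cells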
Description: SANGER: Inhibition of human GDM-1 cell growth in a cell viability assay.

SK-MEL3 = assay: cells; type: functional, cell-based, SK-MEL-3; conditions: Homo sapiens;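 note: growth inhibition of human SK-MEL-3 cells, read out with a cell viability assay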
Description: SANGER: Inhibition of human SK-MEL-3 cell growth in a cell viability assay.

WSU-NHL = assay: cells; type: functional, cell-based; conditions: Homo sapiens;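 note: growth inhibition of human WSU-NHL cells, read out with a cell viability assay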
Description: SANGER: Inhibition of human WSU-NHL cell growth in a cell viability assay.

FTC-133 = assay: cells; type: functional, cell-based; conditions: Homo sapiens
HCT-116 = assay: cells; type: functional, cell-based; conditions: Homo sapiens
Description: SANGER: Inhibition of human HCT-116 cell growth in a cell viability assay.

A 172 = assay: cells; type: functional, cell-based; conditions: Homo sapiens;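 note: growth inhibition of A172 cells, measured with a cell viability readout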
Description: SANGER: Inhibition of human A172 cell growth in a cell viability assay.

BL-70 = assay: SANGER: Inhibition of human BL-70 cell growth in a cell viability assay.; type: functional, cell-based
U2OS = assay: cells; type: functional, cell-based, U-2-OS; conditions: Homo sapiens;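 note: growth inhibition of human U-2-OS cells, determined with a cell viability assay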
Description: SANGER: Inhibition of human U-2-OS cell growth in a cell viability assay.

SW780 = assay: cells; type: functional, cell-based; conditions: Homo sapiens;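 note: growth inhibition of the cells, read out with a cell viability assay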
Description: SANGER: Inhibition of human SW780 cell growth in a cell viability assay.

BFTC-905 = assay: cells; type: functional, cell-based; conditions: Homo sapiens
Description: SANGER: Inhibition of human BFTC-905 cell growth in a cell viability assay.

DK-MG = assay: cells; type: functional, cell-based; conditions: Homo sapiens;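 note: growth inhibition of DK-MG cells, read out with a cell viability assay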
Description: SANGER: Inhibition of human DK-MG cell growth in a cell viability assay.

SAS = assay: cells; type: functional, cell-based; conditions: Homo sapiens;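 note: growth inhibition of SAS cells, read out with a cell viability assay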
Description: SANGER: Inhibition of human SAS cell growth in a cell viability assay.

MHH-ES-1 = assay: cells; type: functional, cell-based; conditions: Homo sapiens
Description: SANGER: Inhibition of human MHH-ES-1 cell growth in a cell viability assay.

CAL-85-1 = assay: cells; type: functional, cell-based; conditions: Homo sapiens;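 note: growth inhibition of human CAL-85-1 cells, read out with a cell viability assay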
Description: SANGER: Inhibition of human CAL-85-1 cell growth in a cell viability assay.

CAL-33 = assay: cells; type: functional, cell-based; conditions: Homo sapiens;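 note: growth inhibition of CAL-33 cells, read out with a cell viability assay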
Description: SANGER: Inhibition of human CAL-33 cell growth in a cell viability assay.

KARPAS-422 = assay: cells; type: functional, cell-based; conditions: Homo sapiens
Description: SANGER: Inhibition of human KARPAS-422 cell growth in a cell viability assay.

COLO-678 = assay: cells; type: functional, cell-based; conditions: Homo sapiens
Description: SANGER: Inhibition of human COLO-678 cell growth in a cell viability assay.

CHP-212 = assay: cells; type: functional, cell-based; conditions: Homo sapiens
Description: SANGER: Inhibition of human CHP-212 cell growth in a cell viability assay.

HTC-C3 = assay: cells; type: functional, cell-based; conditions: Homo sapiens;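 note: inhibition of cell growth, read out with a cell viability assay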
Description: SANGER: Inhibition of human HTC-C3 cell growth in a cell viability assay.

RPMI-7951 = assay: cells; type: functional, cell-based; conditions: Homo sapiens
Description: SANGER: Inhibition of human RPMI-7951 cell growth in a cell viability assay.

HEC-1 = assay: cells; type: functional, cell-based; conditions: Homo sapiens;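 note: growth inhibition of the cell line, read out with a cell viability assay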
Description: SANGER: Inhibition of human HEC-1 cell growth in a cell viability assay.

GP5d = assay: cells; type: functional, cell-based; conditions: Homo sapiens;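 note: growth inhibition of human GP5d cells, read out with a cell viability assay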
Description: SANGER: Inhibition of human GP5d cell growth in a cell viability assay.

KP-N-YN = assay: cells; type: functional, cell-based; conditions: Homo sapiens;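 note: growth inhibition of KP-N-YN cells, read out with a cell viability assay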
Description: SANGER: Inhibition of human KP-N-YN cell growth in a cell viability assay.

CAPAN-1 = assay: cells; type: functional, cell-based; conditions: Homo sapiens;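 note: growth suppression of CAPAN-1 cells, read out by a cell viability assay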
Description: SANGER: Inhibition of human CAPAN-1 cell growth in a cell viability assay.

IGROV-1 = assay: cells; type: functional, cell-based; conditions: Homo sapiens;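 note: reduction of IGROV-1 cell growth, read out with a viability assay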
Description: SANGER: Inhibition of human IGROV-1 cell growth in a cell viability assay.

CAL-54 = assay: cells; type: functional, cell-based; conditions: Homo sapiens;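 note: growth inhibition of CAL-54 cells, read out by a viability measurement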
Description: SANGER: Inhibition of human CAL-54 cell growth in a cell viability assay.

C3A = assay: cells; type: functional, cell-based; conditions: Homo sapiens;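 note: growth inhibition of C3A human cells, quantified with a cell viability readout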
Description: SANGER: Inhibition of human C3A cell growth in a cell viability assay.

HCC70 = assay: cells; type: functional, cell-based; conditions: Homo sapiens;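 note: cell viability assay measuring how strongly the compound suppresses proliferation of HCC70 cells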
Description: SANGER: Inhibition of human HCC70 cell growth in a cell viability assay.

NCI-H2087 = assay: cells; type: functional, cell-based; conditions: Homo sapiens;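 note: growth inhibition determined with a cell viability readout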
Description: SANGER: Inhibition of human NCI-H2087 cell growth in a cell viability assay.

BHT-101 = assay: cells; type: functional, cell-based; conditions: Homo sapiens
Description: SANGER: Inhibition of human BHT-101 cell growth in a cell viability assay.

HT-29 = assay: cells; type: functional, cell-based; conditions: Homo sapiens;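 note: growth inhibition of human HT-29 cells, read out by a cell viability assay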
Description: SANGER: Inhibition of human HT-29 cell growth in a cell viability assay.

Panc1005 = assay: cells; type: functional, cell-based; conditions: Homo sapiens;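 note: growth inhibition of human PANC-10-05 cells, measured by a cell viability assay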
Description: SANGER: Inhibition of human PANC-10-05 cell growth in a cell viability assay.

23132-87 = assay: cells; type: functional, cell-based; conditions: Homo sapiens
Description: SANGER: Inhibition of human 23132-87 cell growth in a cell viability assay.

NCI-H460 = assay: cells; type: functional, cell-based; conditions: Homo sapiens;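 note: cell viability assay scoring growth inhibition of human NCI-H460 cells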
Description: SANGER: Inhibition of human NCI-H460 cell growth in a cell viability assay.

SR = assay: cells; type: functional, cell-based; conditions: Homo sapiens
Description: SANGER: Inhibition of human SR cell growth in a cell viability assay.

HSC-3 = assay: cells; type: functional, cell-based; conditions: Homo sapiens
Description: SANGER: Inhibition of human HSC-3 cell growth in a cell viability assay.

Daoy = assay: cells; type: functional, cell-based; conditions: Homo sapiens;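 note: daoy cell growth inhibition, read out as cell viability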
Description: SANGER: Inhibition of human Daoy cell growth in a cell viability assay.

Detroit 562 = assay: cells; type: functional, cell-based; conditions: Homo sapiens;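 note: growth inhibition of human Detroit 562 cells, read out by a cell viability assay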
Description: SANGER: Inhibition of human Detroit562 cell growth in a cell viability assay.

MeWo = assay: cells; type: functional, cell-based; conditions: Homo sapiens;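 note: growth inhibition of MeWo cells, determined by a cell viability readout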
Description: SANGER: Inhibition of human Mewo cell growth in a cell viability assay.

SCC-9 = assay: cells; type: functional, cell-based; conditions: Homo sapiens;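 note: Read-out is a cell viability assay, with values giving inhibition of cell growth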
Description: SANGER: Inhibition of human SCC-9 cell growth in a cell viability assay.

MDA-MB-415 = assay: cells; type: functional, cell-based; conditions: Homo sapiens

CC(O)(CS(=O)(=O)c1ccc(F)cc1)C(=O)Nc1ccc(C#N)c(C(F)(F)F)c1 (stereo unspecified) [BICALUTAMIDE]
pIC50 (VMRC-RCZ): < 5.99
pIC50 (NCCIT): < 5.99
pIC50 (T-24): < 5.99
pIC50 (ARH-77): < 5.99
pIC50 (GMS-10): < 5.99
pIC50 (MEL-HO): < 5.99
pIC50 (HT-1376): < 5.99
pIC50 (HN): < 5.99
pIC50 (639-V): < 5.99
pIC50 (SUP-T1): < 5.99
pIC50 (NCI-H441): < 5.99
pIC50 (OPM-2): < 5.99
pIC50 (DU-145): < 5.99
pIC50 (TYK-nu): < 5.99
pIC50 (CAMA-1): < 5.99
pIC50 (G-402): < 5.99
pIC50 (NALM-6): < 5.99
pIC50 (SNU-449): < 5.99
pIC50 (NCI-H1573): < 5.99
pIC50 (HuCCT-1): < 5.99
pIC50 (HuP-T3): < 5.99
pIC50 (UO-31): < 5.99
pIC50 (GDM-1): < 5.99
pIC50 (SK-MEL3): < 5.99
pIC50 (WSU-NHL): < 5.99
pIC50 (FTC-133): < 5.99
pIC50 (HCT-116): < 5.99
pIC50 (A 172): < 5.99
pIC50 (BL-70): < 5.99
pIC50 (U2OS): < 5.99
pIC50 (SW780): < 5.99
pIC50 (BFTC-905): < 5.99
pIC50 (DK-MG): < 5.99
pIC50 (SAS): < 5.99
pIC50 (MHH-ES-1): < 5.99
pIC50 (CAL-85-1): < 5.99
pIC50 (CAL-33): < 5.99
pIC50 (KARPAS-422): < 5.99
pIC50 (COLO-678): < 5.99
pIC50 (CHP-212): < 5.99
pIC50 (HTC-C3): < 5.99
pIC50 (RPMI-7951): < 5.99
pIC50 (HEC-1): < 5.99
pIC50 (GP5d): < 5.99
pIC50 (KP-N-YN): < 5.99
pIC50 (CAPAN-1): < 5.99
pIC50 (IGROV-1): < 5.99
pIC50 (CAL-54): < 5.99
pIC50 (C3A): < 5.99
pIC50 (HCC70): < 5.99
pIC50 (NCI-H2087): < 5.99
pIC50 (BHT-101): < 5.99
pIC50 (HT-29): < 5.99
pIC50 (Panc1005): < 5.99
pIC50 (23132-87): < 5.99
pIC50 (NCI-H460): < 5.99
pIC50 (SR): < 5.99
pIC50 (HSC-3): < 5.99
pIC50 (Daoy): < 5.99
pIC50 (Detroit 562): < 5.99
pIC50 (MeWo): < 5.99
pIC50 (SCC-9): < 5.99
pIC50 (MDA-MB-415): < 5.99

N#C/C(=C1/Nc2ccccc2S1)c1ccnc(NCCc2cccnc2)n1
pIC50 (VMRC-RCZ): 5.11
pIC50 (NCCIT): < 5.10
pIC50 (T-24): < 5.10
pIC50 (ARH-77): < 5.10
pIC50 (GMS-10): < 5.10
pIC50 (MEL-HO): 5.26
pIC50 (HT-1376): 5.14
pIC50 (HN): < 5.10
pIC50 (639-V): 5.32
pIC50 (SUP-T1): < 5.10
pIC50 (NCI-H441): 5.26
pIC50 (OPM-2): < 5.10
pIC50 (DU-145): < 5.10
pIC50 (TYK-nu): 5.76
pIC50 (CAMA-1): < 5.10
pIC50 (G-402): < 5.10
pIC50 (NALM-6): 5.35
pIC50 (SNU-449): 5.31
pIC50 (NCI-H1573): < 5.10
pIC50 (HuCCT-1): 5.12
pIC50 (HuP-T3): < 5.10
pIC50 (UO-31): 5.14
pIC50 (GDM-1): < 5.10
pIC50 (SK-MEL3): < 5.10
pIC50 (WSU-NHL): < 5.10
pIC50 (FTC-133): < 5.10
pIC50 (HCT-116): < 5.10
pIC50 (A 172): 5.67
pIC50 (BL-70): 5.31
pIC50 (U2OS): < 5.10
pIC50 (SW780): < 5.10
pIC50 (BFTC-905): 5.47
pIC50 (DK-MG): < 5.10
pIC50 (SAS): < 5.10
pIC50 (MHH-ES-1): < 5.10
pIC50 (CAL-85-1): 5.82
pIC50 (CAL-33): < 5.10
pIC50 (KARPAS-422): < 5.10
pIC50 (COLO-678): < 5.10
pIC50 (CHP-212): < 5.10
pIC50 (HTC-C3): 5.19
pIC50 (RPMI-7951): < 5.10
pIC50 (HEC-1): < 5.10
pIC50 (GP5d): 5.12
pIC50 (KP-N-YN): < 5.10
pIC50 (CAPAN-1): < 5.10
pIC50 (IGROV-1): 6.22
pIC50 (CAL-54): < 5.10
pIC50 (C3A): 5.55
pIC50 (HCC70): < 5.10
pIC50 (NCI-H2087): < 5.10
pIC50 (BHT-101): < 5.10
pIC50 (HT-29): 5.37
pIC50 (Panc1005): < 5.10
pIC50 (23132-87): 5.15
pIC50 (NCI-H460): < 5.10
pIC50 (SR): 5.73
pIC50 (HSC-3): < 5.10
pIC50 (Daoy): < 5.10
pIC50 (Detroit 562): 5.15
pIC50 (MeWo): < 5.10
pIC50 (SCC-9): < 5.10
pIC50 (MDA-MB-415): < 5.10
